From US20230279244A1, “RESIN COMPOSITION, COATED AND DRIED PRODUCT, MELT-KNEADED PRODUCT, OPTICAL FILTER, IMAGE DISPLAY DEVICE, SOLID-STATE IMAGING ELEMENT, SQUARYLIUM COMPOUND, AND METHOD FOR PRODUCING THE SAME” (FUJIFILM Corporation, priority 2020, published 2023)

Experiments:
[1] = Measurement of maximal absorption wavelength of squarylium compound (Test Example 1); format: physicochemical; details: in chloroform, concentration 1×10^−6 mol/L, optical path length 10 mm
Description: The obtained squarylium compound B-12 was dissolved in chloroform (concentration: 1×10^−6 mol/L), and the maximum absorption wavelength λmax of the squarylium compound B-12 was measured using a cell having an optical path length of 10 mm and using a spectrophotometer UV-1800PC (manufactured by Shimadzu Corporation).

[2] = Evaluation of solubility of squarylium compound in toluene/cyclohexanone mixed solvent (Test Example 2); format: physicochemical; details: for Solubility: mixed solvent toluene/cyclohexanone=90/10 (vol %); for Solubility, measured dissolved amount: dissolved in 100 parts by mass of toluene/cyclohexanone=90/10 (vol %)
Description: Solubility of the obtained squarylium compound B-12 in a mixed solvent of toluene/cyclohexanone (toluene/cyclohexanone=90/10 (vol %)) was confirmed. Specifically, a dissolved amount (% by mass) of squarylium compound B-12 dissolved in 100 parts by mass of the mixed solvent of toluene/cyclohexanone was measured.
The solubility was evaluated by applying the obtained dissolved amount to the following standard.
—Evaluation Standard of Solubility—
B: 0.01% by mass or more and less than 0.1% by mass
C: less than 0.01% by mass

Compound	λmax (maximum absorption wavelength) [1] [nm]	Solubility [2]	Solubility, measured dissolved amount [2]	Solubility in an organic solvent (in words) ([2]; summary of Tables 1 to 5)
CCCCC(CC)C(=O)NC1=CC(=[N+](/CCCC)c2ccc(C)cc2)/C=CC/1=C1\C(=O)C(c2ccc(N(CCCC)c3ccc(C)cc3)cc2NC(=O)C(CC)CCCC)=C1[O-] (stereo not shown) [A-1]	688	A (0.1% by mass or more)	–	–
CCCCC(CC)CN(c1ccc(C)cc1)c1ccc(C2=C([O-])/C(=C3C=C/C(=[N+](\CC(CC)CCCC)c4ccc(C)cc4)C=C/3NC(=O)C(C)(C)CC)C2=O)c(NC(=O)C(C)(C)CC)c1 (stereo not shown) [A-2]	690	A (0.1% by mass or more)	–	–
CCCCC(CC)CN(CC(CC)CCCC)c1ccc(C2=C([O-])/C(=C3/C=CC(=[N+](c4ccc(C)cc4)c4ccc(C)cc4)C=C3NC(=O)C(C)(C)CC)C2=O)c(NC(=O)C(C)(C)CC)c1 (stereo not shown) [A-4]	699	A (0.1% by mass or more)	–	–
CCCCC(CC)CN(CC(CC)CCCC)c1ccc(C2=C([O-])/C(=C3C=C/C(=[N+](\CC(CC)CCCC)c4ccc(C)cc4)C=C/3NC(=O)C(C)(C)CC)C2=O)c(NC(=O)C(C)(C)CC)c1 (stereo not shown) [A-5]	681	A (0.1% by mass or more)	–	–
CCCCc1ccc(N(CC(CC)CCCC)c2ccc(C3=C([O-])/C(=C4C=C/C(=[N+](\CC(CC)CCCC)c5ccc(CCCC)cc5)C=C/4NC(=O)C(C)(C)CC)C3=O)c(NC(=O)C(C)(C)CC)c2)cc1 (stereo not shown) [A-19]	687	A (0.1% by mass or more)	–	–
CCCCc1ccc(N(CC(CC)CCCC)c2ccc(C3=C([O-])/C(=C4C=C/C(=[N+](\CC(CC)CCCC)c5ccc(CCCC)cc5)C=C/4NC(=O)c4c(C)cc(C)cc4C)C3=O)c(NC(=O)c3c(C)cc(C)cc3C)c2)cc1 (stereo not shown) [A-20]	696	A (0.1% by mass or more)	–	–
CCCCc1ccc(N(CC(CC)CCCC)c2ccc(C3=C([O-])/C(=C4C=C/C(=[N+](\CC(CC)CCCC)c5ccc(CCCC)cc5)C=C/4NC(=O)C(F)(F)F)C3=O)c(NC(=O)C(F)(F)F)c2)cc1 (stereo not shown) [A-22]	688	A (0.1% by mass or more)	–	–
CCCCC(CC)CN(c1ccc(C2=C([O-])/C(=C3C=C/C(=[N+](\CC(CC)CCCC)c4ccc(C)cc4C)C=C/3NC(=O)C(C)(C)CC)C2=O)c(NC(=O)C(C)(C)CC)c1)c1ccc(C)cc1C (stereo not shown) [A-26]	688	A (0.1% by mass or more)	–	–
CCCCc1ccc(N(CC(CC)CCCC)c2ccc(C3=C([O-])/C(=C4C=C/C(=[N+](\CC(CC)CCCC)c5ccc(CCCC)cc5)C=C/4NC(=O)c4ccccc4)C3=O)c(NC(=O)c3ccccc3)c2)cc1 (stereo not shown) [A-28]	695	A (0.1% by mass or more)	–	–
CCCCc1ccc(N(CC(CC)CCCC)c2ccc(C3=C([O-])/C(=C4C=C/C(=[N+](\CC(CC)CCCC)c5ccc(CCCC)cc5)C=C/4NC(=O)c4ccccc4C)C3=O)c(NC(=O)c3ccccc3C)c2)cc1 (stereo not shown) [A-29]	695	A (0.1% by mass or more)	–	–
CCCCc1ccc(N(CC(CC)CCCC)c2ccc(C3=C([O-])/C(=C4C=C/C(=[N+](\CC(CC)CCCC)c5ccc(CCCC)cc5)C=C/4NC(=O)c4ccc5ccccc5c4)C3=O)c(NC(=O)c3ccc4ccccc4c3)c2)cc1 (stereo not shown) [A-30]	697	A (0.1% by mass or more)	–	–
CC(=O)NC1=CC(=[N+](/C)c2ccccc2)/C=CC/1=C1/C(=O)C(c2ccc(N(C)c3ccccc3)cc2NC(C)=O)=C1[O-] [C-1, reference compound]	680	C (less than 0.01% by mass)	(<0.005% by mass	–
CC(=O)NC1=CC(=[N+](c2ccccc2)c2ccccc2)C=C/C1=C1/C(=O)C(c2ccc(N(c3ccccc3)c3ccccc3)cc2NC(C)=O)=C1[O-] [C-2, reference compound]	737	C (less than 0.01% by mass)	(<0.005% by mass	–
Cc1ccc(N(C)c2ccc(C3=C([O-])/C(=C4C=C/C(=[N+](\C)c5ccc(C)cc5)C=C\4O)C3=O)c(O)c2)cc1 [C-3, reference compound]	658	C (less than 0.01% by mass)	(<0.005% by mass	–
CCN(c1ccc(C)cc1)c1ccc(C2=C([O-])/C(=C3C=C/C(=[N+](\CC)c4ccc(C)cc4)C=C/3NC(=O)C(C)C)C2=O)c(NC(=O)C(C)C)c1 [C-4, reference compound]	685	B (0.01% by mass or more and less than 0.1% by mass)	–	exhibiting solubility in an organic solvent
CCCCN(c1ccccc1)c1ccc(C2=C([O-])/C(=C3C=C/C(=[N+](\CCCC)c4ccccc4)C=C\3NC(C)=O)C2=O)c(NC(C)=O)c1 [C-6, reference compound]	681	C (less than 0.01% by mass)	(<0.01% by mass	–
